Experiments:
[1] = Half life of the molecule in primate sera; format: in vitro ADME; conditions: 37° C.
Experimental: In vitro, we and others (Lang, 1995) have shown that the activation of Vg9Vd2 cells occurs within minutes after the addition of the molecule. Two mechanisms may prevent the molecule to be active in vivo i) the likely rapid renal clearance of such a small molecule and ii) a degradation process in vivo. […] Nevertheless, the concentration of the molecule, injected by intravenous route in relatively high amount, should be maintained beyond the 20 nM EC50 for a significant time, if no additional, blood cell or organ related degradation process occurs in vivo.

[2] = Two-phase repeated dose toxicity study in cynomolgus monkeys, i.v. BrHPP; format: in vivo
Experimental: The objective of the first phase of this non GLP study was to determine BrHPP Maximum Tolerated Dose (MTD) in a group of two cynomolgus monkeys (one male, one female) by escalating doses. The second objective of this study was to characterize the toxicity of daily i.v. administration of Phosphostim for two weeks in two cynomolgus monkeys (one male, one female) at the MTD determined during the first phase of the study. The animals were treated at increasing dose-levels every 3 or 4 days (phase 1) and then at the estimated Maximum Tolerated Dose (MTD) daily for 2 weeks (phase 2).
A total of four cynomolgus monkeys (two males and two females) were divided into 2 groups and treated with BrHPP, by intravenous administration over a 1-hour infusion period as follows:
Group 1 (one male and one female) were administered BrHPP and/or Phosphostim (BrHPP, 200 mg) i.v. at increasing dose-levels (160, 400, 600, 900 and 1200 mg/kg) every 3 or 4 days. Anionic form BrHPP equilvalent to these doses are respectively: 96, 240, 360, 540 and 720 mg/kg. BrHPP was given as a solution after reconstitution in water for injection finally diluted in Ringer lactate under a dose volume of 4, 10 or 15 mL/kg.
Group 2 (one male and one female) were administered BrHPP i.v. daily at 900 mg/kg/day (540 mg/kg/day in anionic form BrHPP equivalent) for 2 weeks.
The animals were checked daily for mortality and clinical signs. Body weight was recorded pre-study and on the day of each administration in phase 1 or twice weekly throughout phase 2, and including on the day of necropsy for phase 2. Food consumption was estimated daily, starting at least 7 days pre-phase. Hematological, blood biochemical and/or peripheral blood lymphocyte subset analysis investigations were performed pre-study, on the day of each administration in phase 1, on day 7 in phase 2 and at the end of both phases. Electrocardiographic and blood pressure recordings were performed pre-study, on the day of each administration in phase 1 and on day 1 and at the end of treatment in phase 2. Blood, for determination of plasma levels of the test item, was sampled on days 1 and 14 in phase 2. On completion of each phase, animals were submitted to a complete macroscopic post-mortem examination and specified tissues preserved. In phase 2, selected body organs were weighed and microscopic examination of selected tissues was performed for all animals.

## 3-(bromomethyl)-3-butanol-1-yl-diphosphate [BrHPP]
[1]
  half life of the molecule in primate sera: about one
[2]; Phase 1 or Phase 2
  macroscopic post-mortem examination: No relevant findings
[2]; Phase 2, 900 mg/kg/day 2 weeks
  lymphocyte count: increased lymphocyte count was noted in both animals
[2]; both treatment phases
  clinical signs: no relevant clinical signs were noted
[2]; either phase
  blood pressure: did not affect blood pressure
  body weight evolution: had no effect on the body weight evolution
  food consumption: unaffected
[2]; phase 1, 160-1200 mg/kg
  hematological or blood chemistry changes: No treatment related hematological or blood chemistry changes
[2]; phase 1: 160-1200 mg/kg every 3 or 4 days, phase 2: 900 mg/kg/day 2 weeks
  mortality: No unscheduled death occurred
[2]; phase 2, female
  absolute thymus weight: slightly lower absolute thymus weight
  microscopic findings, female: Lymphoid depletion was seen in the thymus and mesenteric lymph node
[2]; phase 2, male
  microscopic findings, male: increase of follicular germinal center in the mesenteric lymph node

Reference: patent US20100254940A1, “Compositions and Methods for Regulating an Immune Response in a Subject” (INNATE PHARMA, S.A., priority 2002, published 2010)
